# Test results taken from patent US20070128217A1 (priority 2003, published 2007).
# Key:
# [1] = tested on: antibodies in sera from SARS patients (sera 1a, 1b, 2, 6, 37, 62, London, SARS-yellow, SARS-green); format: binding, human; design: Binding of serum 6 to linear peptides of protein X1 of SARS-CoV Urbani / Binding of serum 37 to linear peptides of protein X1 of SARS-CoV Urbani / Binding of serum 6 to looped/cyclic peptide (PEPSCAN-ELISA) / Binding of serum 37 to looped/cyclic peptide (PEPSCAN-ELISA) / Binding of serum 37 to looped/cyclic peptides of protein X1 of SARS-CoV Urbani / Binding of serum 6 to linear peptides of protein X2 / Binding of serum 37 to linear peptides of protein X2 / Binding of serum 37 to looped/cyclic peptides of protein X2 of SARS-CoV Urbani / Binding of serum 6 to linear peptides of protein M of SARS-CoV Urbani / Binding of serum 37 to linear peptides of protein M of SARS-CoV Urbani / Binding of serum 6 to looped/cyclic peptides of protein M of SARS-CoV Urbani / Binding of serum 37 to looped/cyclic peptides of protein M of SARS-CoV Urbani / Binding of serum 6 to linear peptides of protein X3 of SARS-CoV Urbani / Binding of serum 37 to linear peptides of protein X3 of SARS-CoV Urbani / Binding of serum 37 to looped/cyclic peptides of protein X3 of SARS-CoV Urbani / Binding of serum 6 to linear peptides of protein X4 of SARS-CoV Urbani / Binding of serum 37 to linear peptides of protein X4 of SARS-CoV Urbani / Binding of serum 37 to looped/cyclic peptides of protein X4 of SARS-CoV Urbani / Binding of serum 6 to linear peptides of protein X5 of SARS-CoV Urbani / Binding of serum 37 to linear peptides of protein X5 of SARS-CoV Urbani / Binding of serum 37 to looped/cyclic peptides of protein X5 of SARS-CoV Urbani / Binding of serum 6 to linear peptides of protein N of SARS-CoV Urbani / Binding of serum 37 to linear peptides of protein N of SARS-CoV Urbani / Binding of serum 6 to linear peptide (PEPSCAN-ELISA) / Binding of serum 1a to looped/cyclic peptides of protein N of SARS-CoV Urbani / Binding of serum 1b to looped/cyclic peptides of protein N of SARS-CoV Urbani / Binding of serum 2 to looped/cyclic peptides of protein N of SARS-CoV Urbani / Binding of serum 6 to looped/cyclic peptides of protein N of SARS-CoV Urbani / Binding of serum 37 to looped/cyclic peptides of protein N of SARS-CoV Urbani / Binding of serum 62 to looped/cyclic peptides of protein N of SARS-CoV Urbani / Binding of serum London to looped/cyclic peptides of protein N of SARS-CoV Urbani / Binding of serum SARS-green to looped/cyclic peptides of protein N of SARS-CoV Urbani: unit not given here
# [2] = tested on: control sera (pooled serum of ten healthy LUMC hospital workers; commercial negative donor pooled serum from the Dutch bloodbank); format: binding, human; design: Binding of Control serum LUMC to linear peptides / Binding of Control serum Blood-bank to linear peptides / Binding of Control serum LUMC to looped peptides / Binding of Control Serum Blood-Bank to Looped peptides / Binding of Control serum LUMC to linear peptides of the protein M of SARS-CoV Urbani / Binding of Control serum Blood-bank to linear peptides of the protein M of SARS-CoV Urbani / Binding of Control serum LUMC to looped peptides of the protein M of SARS-CoV Urbani / Binding of Control Serum Blood-Bank to Looped peptides of the protein M of SARS-CoV Urbani: unit not given here
# [3] = tested on: rabbit serum obtained by immunizing a rabbit with the SARS-CoV strain Frankfurt 1; format: binding; design: Binding of a rabbit serum to linear peptides / Binding of a rabbit serum to looped peptides / Rabbit serum linear peptides / Rabbit serum looped peptides / Binding of a rabbit serum to linear peptides of protein N of SARS-CoV Urbani (Rabbit serum linear peptides) / Binding of a rabbit serum to looped/cyclic peptides of protein N of SARS-CoV Urbani (Rabbit serum looped peptides): unit not given here
sequence,measurement,setting,value
ACIVGLMWLSYFVAS,Binding of serum 1a to linear peptides of protein M of SARS-CoV Urbani,[1],0.7
same,Binding of serum 1a to looped/cyclic peptides of protein M of SARS-CoV Urbani,[1],0.6
same,Binding of serum 1b to linear peptides of protein M of SARS-CoV Urbani,[1],0.5
same,Binding of serum 1b to looped/cyclic peptides of protein M of SARS-CoV Urbani,[1],0.3
same,Binding of serum 2 to linear peptides of protein M of SARS-CoV Urbani,[1],0.5
same,Binding of serum 2 to looped/cyclic peptides of protein M of SARS-CoV Urbani,[1],0.5
same,Binding of serum 6 to linear peptides of protein M of SARS-CoV Urbani,[1],0.4
same,Binding of serum 6 to looped/cyclic peptides of protein M of SARS-CoV Urbani,[1],0.6
same,Binding of serum 37 to linear peptides of protein M of SARS-CoV Urbani,[1],0.6
same,Binding of serum 37 to looped/cyclic peptides of protein M of SARS-CoV Urbani,[1],0.5
same,Binding of serum 62 to linear peptides of protein M of SARS-CoV Urbani,[1],0.7
same,Binding of serum 62 to looped/cyclic peptides of protein M of SARS-CoV Urbani,[1],0.4
same,Binding of serum London to linear peptides of protein M of SARS-CoV Urbani,[1],0.3
same,Binding of serum London to looped/cyclic peptides of protein M of SARS-CoV Urbani,[1],0.2
same,Binding of serum SARS-green to linear peptides of protein M of SARS-CoV Urbani,[1],0.2
same,Binding of serum SARS-green to looped/cyclic peptides of protein M of SARS-CoV Urbani,[1],0.2
same,Binding of serum SARS-yellow to linear peptides of protein M of SARS-CoV Urbani,[1],0.1
same,Binding of serum SARS-yellow to looped/cyclic peptides of protein M of SARS-CoV Urbani,[1],0.4
same,Binding of Control Serum Blood-Bank to Looped peptides of the protein M of SARS-CoV Urbani,[2],0.6
same,Binding of Control serum Blood-bank to linear peptides of the protein M of SARS-CoV Urbani,[2],0.6
same,Binding of Control serum LUMC to linear peptides of the protein M of SARS-CoV Urbani,[2],0.3
same,Binding of Control serum LUMC to looped peptides of the protein M of SARS-CoV Urbani,[2],0.5
same,Rabbit serum linear peptides,[3],0.3
same,Rabbit serum looped peptides,[3],0.8
AFACADGTRHTYQLR,Binding of serum 1a to linear peptides of protein X4 of SARS-CoV Urbani,[1],0.6
same,Binding of serum 1a to looped/cyclic peptides of protein X4 of SARS-CoV Urbani,[1],0.6
same,Binding of serum 1b to linear peptides of protein X4 of SARS-CoV Urbani,[1],0.4
same,Binding of serum 1b to looped/cyclic peptides of protein X4 of SARS-CoV Urbani,[1],0.4
same,Binding of serum 2 to linear peptides of protein X4 of SARS-CoV Urbani,[1],0.4
same,Binding of serum 2 to looped/cyclic peptides of protein X4 of SARS-CoV Urbani,[1],0.8
same,Binding of serum 6 to linear peptides of protein X4 of SARS-CoV Urbani,[1],0.5
same,Binding of serum 6 to looped/cyclic peptides of protein X4 of SARS-CoV Urbani,[1],0.9
same,Binding of serum 37 to linear peptides of protein X4 of SARS-CoV Urbani,[1],0.6
same,Binding of serum 37 to looped/cyclic peptides of protein X4 of SARS-CoV Urbani,[1],0.6
same,Binding of serum 62 to linear peptides of protein X4 of SARS-CoV Urbani,[1],0.7
same,Binding of serum 62 to looped/cyclic peptides of protein X4 of SARS-CoV Urbani,[1],0.5
same,Binding of serum London to linear peptides of protein X4 of SARS-CoV Urbani,[1],0.6
same,Binding of serum London to looped/cyclic peptides of protein X4 of SARS-CoV Urbani,[1],0.4
same,Binding of serum SARS-green to linear peptides of protein X4 of SARS-CoV Urbani,[1],0.4
same,Binding of serum SARS-green to looped/cyclic peptides of protein X4 of SARS-CoV Urbani,[1],0.5
same,Binding of serum SARS-yellow to linear peptides of protein X4 of SARS-CoV Urbani,[1],0.2
same,Binding of serum SARS-yellow to looped/cyclic peptides of protein X4 of SARS-CoV Urbani,[1],0.4
same,Binding of Control Serum Blood-Bank to Looped peptides,[2],0.7
same,Binding of Control serum Blood-bank to linear peptides,[2],0.6
same,Binding of Control serum LUMC to linear peptides,[2],0.5
same,Binding of Control serum LUMC to looped peptides,[2],0.8
same,Rabbit serum linear peptides,[3],0.5
same,Rabbit serum looped peptides,[3],0.1
